Where only a bound is given, the exact number is not on record here.

For series [1], the target named is Prostaglandin G/H synthase 1 (Homo sapiens, UniProt P23219). As to the kind of experiment: biochemical. Type of series: cell-based, Sf9, Microsomes.
Description: Inhibitory activity against human recombinant Prostaglandin G/H synthase 1 expressed in microsomes taken from baculovirus infected Sf9 cells
The target of series [2] is T1, Prostaglandin G/H synthase 2 (Homo sapiens, UniProt P35354).
T1 sequence (P35354 whole entry): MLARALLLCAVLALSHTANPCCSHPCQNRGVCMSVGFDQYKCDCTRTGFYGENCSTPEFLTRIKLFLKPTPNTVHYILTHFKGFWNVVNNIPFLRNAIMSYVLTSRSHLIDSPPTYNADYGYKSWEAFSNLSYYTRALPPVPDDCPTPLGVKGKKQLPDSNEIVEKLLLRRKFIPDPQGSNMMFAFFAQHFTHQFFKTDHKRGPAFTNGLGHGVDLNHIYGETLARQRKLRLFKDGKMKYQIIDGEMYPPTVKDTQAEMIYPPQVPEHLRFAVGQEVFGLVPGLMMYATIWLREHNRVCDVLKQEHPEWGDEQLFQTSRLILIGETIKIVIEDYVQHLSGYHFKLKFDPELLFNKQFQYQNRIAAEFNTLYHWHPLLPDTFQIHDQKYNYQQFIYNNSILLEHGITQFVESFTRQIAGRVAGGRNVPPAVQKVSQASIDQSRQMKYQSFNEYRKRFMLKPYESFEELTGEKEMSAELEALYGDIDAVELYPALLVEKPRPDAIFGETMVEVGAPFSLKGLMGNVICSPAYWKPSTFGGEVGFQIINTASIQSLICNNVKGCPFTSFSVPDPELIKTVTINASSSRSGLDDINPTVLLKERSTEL
In words: biochemical. Type of series: cell-based, Sf9, Microsomes.
Description: Inhibitory activity against human recombinant Prostaglandin G/H synthase 2 expressed in microsomes taken from baculovirus infected Sf9 cells

Series [3] can be described thus: Plasma concentration at 2 hr in rats was evaluated. Type of series: ADME, organism-based. Particulars: rat.
Series [4] concerns Rattus norvegicus. As to the kind of experiment: Compound was evaluated in vivo for potency against rat paw edema model. Type of series: functional.
In series [5] the test system is Rattus norvegicus. As to the kind of experiment: Compound was evaluated in vivo for effect on gastrointestinal integrity(GI) in rats using [51Cr]- assay: no lesions observed. Format: functional, organism-based.
Series [6] deals with Rattus norvegicus. As to the kind of experiment: Compound was evaluated in vivo for effect on gastrointestinal integrity (GI) in rats using [51Cr]- assay: causes lesions. Format: functional, organism-based.
The subject of series [7] is Rattus norvegicus. As to the kind of experiment: Compound was evaluated in vivo for effect on gastrointestinal integrity(GI) in rats using [51Cr]- assay: causes lesions. Type of series: functional, organism-based.

Prostaglandin G/H synthase 1, sequence (P23219 whole entry): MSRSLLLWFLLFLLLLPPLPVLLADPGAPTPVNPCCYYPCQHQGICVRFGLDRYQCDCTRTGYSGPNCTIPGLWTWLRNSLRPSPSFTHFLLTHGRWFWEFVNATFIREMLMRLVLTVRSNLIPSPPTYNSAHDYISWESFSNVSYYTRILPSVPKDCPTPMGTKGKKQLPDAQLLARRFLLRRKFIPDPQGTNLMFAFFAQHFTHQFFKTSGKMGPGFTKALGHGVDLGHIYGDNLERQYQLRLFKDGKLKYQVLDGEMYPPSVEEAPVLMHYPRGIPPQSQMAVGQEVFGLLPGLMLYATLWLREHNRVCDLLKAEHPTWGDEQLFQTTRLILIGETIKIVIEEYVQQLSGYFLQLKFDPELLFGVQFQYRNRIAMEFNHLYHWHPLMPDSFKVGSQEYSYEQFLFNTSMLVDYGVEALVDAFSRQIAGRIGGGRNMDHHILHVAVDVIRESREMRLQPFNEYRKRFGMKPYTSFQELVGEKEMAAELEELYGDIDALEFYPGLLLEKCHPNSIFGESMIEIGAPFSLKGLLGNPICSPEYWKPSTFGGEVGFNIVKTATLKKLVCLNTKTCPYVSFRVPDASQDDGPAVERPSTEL

By IC50 is commonly meant the concentration that inhibits the measured activity by half. Read a high IC50 as weaker potency. For the compound `CS(=O)(=O)c1ccc(-c2c(-c3ccc(F)cc3)csc2CC(=O)O)cc1`, the IC50 in series [1] is above 50 µM; in series [2], above 10 µM.
In the same order, the values of `CS(=O)(=O)c1ccc(-c2csc(CC(=O)O)c2-c2ccc(F)cc2)cc1` are above 50 µM and above 10 µM.
As to `CS(=O)(=O)c1ccc(-c2cscc2-c2ccc(F)cc2)cc1`, the values for the IC50 in series [1] and in series [2] were above 100 µM and 0.47 µM, respectively.
Consider `CS(=O)(=O)c1ccc(-c2csc(Br)c2-c2ccc(F)cc2)cc1`, for which the IC50 in series [1] worked out at 1.2 µM.
With `CC(C)(O)c1scc(-c2ccc(F)cc2)c1-c1ccc(S(C)(=O)=O)cc1`, the figures for the IC50 in series [1] and in series [2] were above 50 µM and above 30 µM, respectively.
Usually ED50 stands for the midpoint of the dose-response relation. Compound `CS(=O)(=O)c1ccc(-c2cnsc2-c2ccc(F)cc2)cc1` showed a concentration at 2 h in series [3] of 2200 ng/mL. Besides, the results for the IC50 in series [1] and in series [2] were above 100 µM and 2.1 µM, respectively. In the series with Rattus norvegicus [4], this compound registered an ED50 of 10 mg/kg.
For the compound `CS(=O)(=O)c1ccc(-c2oc(=O)oc2-c2ccccc2)cc1`, the IC50 in series [1] is above 50 µM; in series [2], above 30 µM.
For the compound `CS(=O)(=O)c1ccc(-c2snnc2-c2ccc(F)cc2)cc1`, in series [3], the concentration at 2 h was determined as 12800 ng/mL. Moreover, the IC50 in series [1] is above 100 µM; in series [2], 6.5 µM. The “growth inhibition (GI)” value with Rattus norvegicus [5] is “no lesions observed”. Moreover, in the series on Rattus norvegicus [4], the 50% effect level (ED50) was put at a dose of 0.7 mg/kg.
Take `CS(=O)(=O)c1ccc(-c2cc(C(F)(F)F)nn2-c2ccc(F)cc2)cc1`: the IC50 is above 1.1 µM in series [1] and 1.2 µM in series [2].
In the same order, the values of `CC(C)(O)c1scc(-c2ccc(S(C)(=O)=O)cc2)c1-c1ccc(F)cc1` are above 50 µM and 5.9 µM.
In the same order, the values of `CS(=O)(=O)c1ccc(-c2nnnn2-c2ccc(F)c(F)c2)cc1` are above 50 µM and above 30 µM.
In the case of `CS(=O)(=O)c1ccc(C2=C(c3ccc(F)cc3)C3CCC2C3)cc1` (stereo unspecified), the IC50 is above 50 µM in series [1] and 30 µM in series [2].
In the same order, the values of `CS(=O)(=O)c1ccc(-c2ncoc2-c2ccc(F)cc2)cc1` are above 100 µM and above 30 µM.
For the compound `Cc1nc(-c2ccc(S(C)(=O)=O)cc2)c(-c2ccc(F)cc2)s1`, the figures for the IC50 in series [1] and in series [2] were above 100 µM and 0.31 µM, respectively.
In the same order, the values of `CS(=O)(=O)c1ccc(-n2nnnc2-c2ccc(F)c(F)c2)cc1` are above 100 µM and above 30 µM.
In the same order, the values of `CS(=O)(=O)c1ccc(-c2[nH]nnc2-c2ccccc2)cc1` are above 50 µM and above 30 µM.
For the compound `CS(=O)(=O)c1ccc(-c2cc(Br)sc2-c2ccc(F)cc2)cc1` [DUP-697], in series [3], the concentration at 2 h turned out to be 700 ng/mL. Further, in the series on Rattus norvegicus [6], the “growth inhibition (GI)” value was “causes lesions”. The same compound came in with an ED50 in the series with Rattus norvegicus [4] of 1.3 mg/kg.
`Cc1nc(-c2ccc(F)cc2)c(-c2ccc(S(C)(=O)=O)cc2)s1`: the IC50 was above 100 µM in series [1] and 0.31 µM in series [2].
In the same order, the values of `CS(=O)(=O)c1ccc(-c2sncc2-c2ccc(F)cc2)cc1` are above 100 µM and 5.1 µM.
In the same order, the values of `CS(=O)(=O)c1ccc(-c2[nH]cnc2-c2ccc(F)cc2)cc1` are above 100 µM and above 30 µM.
With `COc1ccc2c(c1)c(CC(=O)O)c(C)n2C(=O)c1ccc(Cl)cc1` [INDOMETHACIN], in the series on Rattus norvegicus [7], the “growth inhibition (GI)” value is recorded as “Causes lesions”. Moreover, it took a dose of 2 mg/kg to reach the 50% effect level in the series with Rattus norvegicus [4] (ED50).
Take `CS(=O)(=O)c1ccc(-c2ocnc2-c2ccc(F)cc2)cc1`: the values for the IC50 in series [1] and in series [2] were above 100 µM and above 30 µM, respectively.
In the same order, the values of `CS(=O)(=O)c1ccc(-c2c(-c3ccc(F)cc3)csc2Br)cc1` are above 50 µM and above 30 µM.

These data come from ChEMBL document CHEMBL1128908, “Synthesis and biological evaluation of 2,3-diarylthiophenes as selective cox-2 inhibitors. part II: Replacing the heterocycle” (Bioorg Med Chem Lett, 1996).
